Columns and labels:
Format in all cases: cell-based
myogenin = myogenin mRNA expression in TNF-α-treated differentiated L6 cells (RT-PCR); conditions: TNF-α 24 hours, kirenol 10, 40 μM, FIG. 4
Procedure: (§1) L6 myoblasts (American Type Culture Collection, Manassas, Va., USA), which are muscle cells, were incubated in DMEM (10% FBS, 100 U/mL penicillin, 100 μg/mL streptomycin). When the cell density reached about 80-85%, the cell culture medium was replaced with a DMEM growth medium supplemented with 2% FBS. The experiment was initiated after 6 days of differentiation. To induce muscle reduction, the differentiated L6 cells were treated with TNF-α for 24 hours and then with the ethanol extract of Siegesbeckia orientalis L. (10, 40 ppm) prepared according to Example 3-1 and kirenol (10, 40 μM) prepared according to Example 4. RT-PCR was carried out to measure mRNA expression levels of myogenin and MyoD, which are muscle differentiation regulatory factors. TRIzol Reagent (Invitrogen, Carlsbad, Calif., USA) was used for harvesting total RNA from the differentiated cells, and the total RNA was reverse transcribed. The RT-PCR analysis was carried out as follows: First, the RNA was reverse transcribed for cDNA synthesis by using a reverse transcriptase. RT-PCR was conducted using specific primers as listed below, and β-actin was used to indicate that a constant amount of mRNA was loaded into each lane.

MyoD = MyoD mRNA expression in TNF-α-treated differentiated L6 cells (RT-PCR); conditions: TNF-α 24 hours, kirenol 10, 40 μM, FIG. 4
Procedure: as §1

p-mTOR = p-mTOR protein expression in L6 muscle cells (western blotting); conditions: 10 μM kirenol, 24 hours, vs 0.01% DMSO control, FIG. 1
Procedure: (§2) L6 myoblasts (American Type Culture Collection, Manassas, Va., USA), which are muscle cells, were incubated in Dulbecco's Modified Eagle's Medium (DMEM; Hyclone) containing 10% fetal bovine serum (FBS; Hyclone, Logan, Utah, USA), 100 U/mL penicillin, and 100 μg/mL streptomycin (Gibco, Grand Island, N.Y., USA). The L6 cells were treated with the Siegesbeckia glabrescens Mak. ethanol extract prepared according to the above Example 1-1, the Siegesbeckia pubescens Mak. ethanol extract prepared according to Example 2-1, or the Siegesbeckia orientalis L. ethanol extract prepared according to Example 3-1, each at a concentration of 10 ppm. Also, L6 cells were treated with 10 μM kirenol prepared according to Example 4. In this case, a group treated with 0.01% DMSO instead of being treated with a sample was prepared as a control group. […]
(§3) ECL western blotting detection reagents (Amersham, Tokyo, Japan) were used to color p-mTOR protein bands, and the G:BOX EF imaging system (Syngene, Cambridge, UK) was used to measure the densities of the colored protein bands. In this case, relative densities of protein bands of experimental groups treated with a sample were determined as a percentage (%), with the density of the control protein band being 100%. […]

atrogin-1 = atrogin-1 mRNA expression in differentiated L6 cells (RT-PCR); conditions: kirenol 10, 40 μM, FIG. 6
MuRF1 = MuRF1 mRNA expression in differentiated L6 cells (RT-PCR); conditions: kirenol 10, 40 μM, FIG. 6
PGC-1α = PGC-1α protein expression in L6 muscle cells (western blotting); conditions: 10 μM kirenol, 24 hours, vs 0.01% DMSO control, FIG. 11
Procedure: as §2, with “(myoblast; American” for “(American”, “DMEM (Hyclone)” for “Dulbecco's Modified Eagle's Medium (DMEM; Hyclone)”, “to” for “to the above”, “1-1,” for “1-1, the”, “or” for “or the”, “group. 24 hours later, the L6 cells were dissolved in a RIPA (ELPIS-Biotech, Daejeon, Korea) buffer solution containing a proteinase inhibitor cocktail (Sigma-Aldrich, St. Louis, Mo., USA).” for “group.”
as §3, with “PGC-1α” for “p-mTOR”

## C[C@@]1(CO)C[C@@H](O)C[C@@]2(C)C3CC[C@](C)([C@@H](O)CO)C=C3CC[C@H]12 (stereo in doubt) [kirenol, (1R,3S,4aS,4bS,7S,10aS)-1,2,3,4,4a,4b,5,6,7,9,10,10a-Dodecahydro-3-hydroxy-7-[(R)-1,2-dihydroxyethyl]-1,4a,7-trimethylphenanthrene-1-methanol]
myogenin
  mRNA expression level of myogenin: increases
MyoD
  mRNA expression level of MyoD: increases
p-mTOR
  protein expression level of p-mTOR: increased
atrogin-1
  mRNA expression level of atrogin-1: reduces
MuRF1
  mRNA expression level of MuRF1: reduces
PGC-1α
  protein expression level of PGC-1α: increased

From patent US20170182106A1, “COMPOSITION INCLUDING KIRENOL OR SIEGESBECKIA HERBA EXTRACT FOR MUSCLE FUNCTION IMPROVEMENT OR EXERCISE ABILITY ENHANCEMENT” (University-Industry Foundation, Yonsei University, priority 2014, published 2017)
